Results reported in patent US9138438B2, “Method for protecting a retinal neuronal cell” (ASAHI GLASS COMPANY, LIMITED, priority 2005, dated 2015).

Tested on: rat fetal retinal neuronal cells
Assay: Glutamate-induced retinal neuronal cell death, trypan blue survival rate
Format: cell-based
Settings: test compound 0.1 nM to 100 nM; 24 hours pre-incubation, 1 mM glutamate 10 minutes, then 1 hour with test compound; survival rate by trypan blue
Protocol: In order to find a new pharmaceutical application of a prostaglandin F2α derivative, by using rat fetal retinal neuronal cells, an effect of a prostaglandin F2α derivative on protecting retinal neuronal cells against glutamate-induced retinal neuronal cell death was evaluated and examined.
Incidentally, as the prostaglandin F2α derivative which is a test compound, 16-phenoxy-15-deoxy-15,15-difluoro-17,18,19,20-tetranor-prostaglandin F2α was used.
A pregnant SD rat was subjected to laparotomy under systemic anesthesia, and the uterus was transferred to a dish containing Hanks's balanced salt solution (HBSS). A rat fetus was isolated from the uterus, and the eyeballs of the rat fetus were taken out. The retina was isolated from the eyeballs under a stereoscopic microscope and cut into pieces with a surgical knife. […] After the cell number was counted with a hemocytometer, an MEM medium containing 10% FBS was added thereto, whereby a cell suspension with a cell density of 0.8×10^6 cells/mL was obtained. […]
At day 10 of culture, the plastic discs in which cells were inoculated and cultured were transferred to the HS-containing MEM medium containing the test compound and incubated for 24 hours (37° C., 5% CO2). […] After the cells were washed with a physiological saline solution, stained cells and unstained cells were counted under an inverted microscope. […]

For `O=C(O)CCC/C=C\C[C@@H]1[C@@H](/C=C/C(F)(F)COc2ccccc2)[C@H](O)C[C@@H]1O` [test compound, 16-phenoxy-15-deoxy-15,15-difluoro-17,18,19,20-tetranor-prostaglandin F2α], the “glutamate-induced retinal neuronal cell death” value was “inhibited in a concentration-dependent manner”.
